Among the data in patent US20260007684A1, “AMIDE DERIVATIVES FOR INHIBITING NLRP3 AND USES THEREOF” (Ventus Therapeutics U.S., Inc., priority 2023, published 2026) are IC50 values, retold here.

Assay [1] addresses T1, human NLRP3 (Homo sapiens (Human), UniProt Q96P20). Kind of assay: Human Whole Blood (hWB) NLRP3 Assay (LPS/ATP, IL-1β). It counts as cell-based. Conditions: human whole blood, LPS/ATP, IL-1β; read-out: hWB IC50.
The target of assay [2] is T1, human NLRP3. Kind of assay: Scintillation Proximity (SPA) NLRP3 Assay: displacement of 3H-MCC950. It counts as binding. Conditions: displacement of 3H-MCC950; read-out: SPA IC50.
In assay [3] the target is T1, human NLRP3. The assay can be described thus: Human PBMC NLRP3 Assay (LPS priming, ATP stimulation, cytokine measurement). Format: cell-based. Conditions: LPS priming, ATP stimulation.
Where [4] appears, read: human PBMC, read-out: PBMC IC50.

SMILES strings stand for the structures. pIC50: −log10 of the molar value. Bounds are passed on as bounds.

T1 sequence (Q96P20 whole entry): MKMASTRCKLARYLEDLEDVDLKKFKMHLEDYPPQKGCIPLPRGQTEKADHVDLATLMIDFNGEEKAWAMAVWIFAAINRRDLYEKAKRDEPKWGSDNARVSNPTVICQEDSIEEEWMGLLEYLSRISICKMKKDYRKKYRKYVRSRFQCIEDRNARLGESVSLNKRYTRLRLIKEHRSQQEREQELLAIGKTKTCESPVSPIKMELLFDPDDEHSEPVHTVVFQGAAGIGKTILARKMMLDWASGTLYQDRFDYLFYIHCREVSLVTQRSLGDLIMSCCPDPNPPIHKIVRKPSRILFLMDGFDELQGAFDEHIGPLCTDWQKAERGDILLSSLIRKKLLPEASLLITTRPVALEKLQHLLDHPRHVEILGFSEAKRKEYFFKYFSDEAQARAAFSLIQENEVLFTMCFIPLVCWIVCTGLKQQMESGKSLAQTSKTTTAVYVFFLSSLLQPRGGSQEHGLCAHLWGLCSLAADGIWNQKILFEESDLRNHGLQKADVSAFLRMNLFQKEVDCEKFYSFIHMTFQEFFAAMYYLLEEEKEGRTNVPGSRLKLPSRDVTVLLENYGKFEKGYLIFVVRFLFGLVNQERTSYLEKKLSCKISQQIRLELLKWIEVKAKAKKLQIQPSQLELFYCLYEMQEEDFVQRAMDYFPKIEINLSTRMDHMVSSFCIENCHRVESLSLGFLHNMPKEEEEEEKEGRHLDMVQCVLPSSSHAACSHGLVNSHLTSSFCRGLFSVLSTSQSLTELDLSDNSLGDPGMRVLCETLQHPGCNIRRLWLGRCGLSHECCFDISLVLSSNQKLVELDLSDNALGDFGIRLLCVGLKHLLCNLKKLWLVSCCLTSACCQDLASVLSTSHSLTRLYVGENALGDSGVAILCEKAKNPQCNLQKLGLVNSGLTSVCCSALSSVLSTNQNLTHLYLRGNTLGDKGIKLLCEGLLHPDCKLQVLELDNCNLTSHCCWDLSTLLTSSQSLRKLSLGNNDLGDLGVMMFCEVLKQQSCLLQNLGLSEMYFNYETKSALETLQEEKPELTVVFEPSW

For the compound `O=C(N[C@@H]1CC[C@H]2CC[C@@H]1N2c1nnn[nH]1)C1(c2ccc(Cl)cc2O)CC1` [75C*, N-((1S,2R,5S)-8-(1H-tetrazol-5-yl)-8-azabicyclo[3.2.1]octan-2-yl)-1-(4-chloro-2-hydroxyphenyl)cyclopropane-1-carboxamide], the pIC50 (usually the IC50 on a negative log10 scale, so that one unit is a factor of ten) on human NLRP3 [1] was 5.70 to 6.00; at human NLRP3 [2], > 6.00; at human NLRP3 [3] (PBMC IC50, human PBMC), 7.00 to 8.00.

Consider `C[C@@H]1CCN(c2nnn[nH]2)C[C@@H](NC(=O)C2(c3ccc(OC(F)(F)F)cc3O)CC2)C1` (single isomer, unassigned) [62B*], for which the pIC50 is 5.70 to 6.00 at human NLRP3 [1], > 6.00 at human NLRP3 [2] and 7.00 to 8.00 on human NLRP3 [3] (setting [4]).

For `C[C@H]1C[C@@H](NC(=O)C2(c3ccc(OC(F)F)cc3O)CC2)CN(c2nnn[nH]2)C1` [Compound 19A, 1-(4-(difluoromethoxy)-2-hydroxyphenyl)-N-((3R,5S)-5-methyl-1-(1H-tetrazol-5-yl)piperidin-3-yl)cyclopropane-1-carboxamide], the pIC50 is > 6.00 at human NLRP3 [1], > 6.00 at human NLRP3 [2] and 7.00 to 8.00 at human NLRP3 [3] (setting [4]).

`C[C@H]1C[C@@H](NC(=O)C2(c3ncc(C(F)(F)F)cc3O)CC2)CN(c2nnn[nH]2)C1` [Compound 25A, 1-(3-hydroxy-5-(trifluoromethyl)pyridin-2-yl)-N-((3R,5S)-5-methyl-1-(1H-tetrazol-5-yl)piperidin-3-yl)cyclopropane-1-carboxamide]: the pIC50 is < 5.52 on human NLRP3 [1], > 6.00 on human NLRP3 [2] and 6.30 to 7.00 on human NLRP3 [3] (setting [4]).

As to `C[C@@H]1CCN(c2nnn[nH]2)C[C@H](NC(=O)C2(c3cnc(Cl)cc3O)CC2)C1` (single isomer, unassigned) [99A*], the pIC50 was 5.52 to 5.70 on human NLRP3 [1], > 6.00 on human NLRP3 [2] and 7.00 to 8.00 on human NLRP3 [3] (setting [4]).

Turning to `O=C(N[C@@H]1CC[C@H]2CC[C@@H]1N2c1nnn[nH]1)C1(c2ccc(Cl)c(F)c2O)CC1` [76C*, N-((1S,2R,5S)-8-(1H-tetrazol-5-yl)-8-azabicyclo[3.2.1]octan-2-yl)-1-(4-chloro-3-fluoro-2-hydroxyphenyl)cyclopropane-1-carboxamide], the pIC50 on human NLRP3 [1] was 5.70 to 6.00; on human NLRP3 [2] it was > 6.00; at human NLRP3 [3] (setting [4]), 6.30 to 7.00.

In the case of `Cc1cc(Cl)cc(O)c1C1(C(=O)N[C@@H]2C[C@H](C)CN(c3nnn[nH]3)C2)CC1` [Compound 33A, 1-(4-chloro-2-hydroxy-6-methylphenyl)-N-((3R,5S)-5-methyl-1-(1H-tetrazol-5-yl)piperidin-3-yl)cyclopropane-1-carboxamide], the negative logarithm of the IC50 (pIC50) on human NLRP3 [1] was < 5.52; on human NLRP3 [2] it was > 6.00; at human NLRP3 [3] (setting [4]), 7.00 to 8.00.

Turning to `C[C@@H]1CCN(c2nnn[nH]2)C[C@H](NC(=O)C2(c3ccc(Cl)nc3O)CC2)C1` (single isomer, unassigned) [100A*], the pIC50 on human NLRP3 [1] was < 5.52; on human NLRP3 [2], > 6.00; at human NLRP3 [3] (setting [4]), 6.30 to 7.00.
